Data taken from patent publication US20110136897A1, “TOLL-LIKE RECEPTOR 9 AGONISTS FOR THE TREATMENT OF ANXIETY-RELATED DISORDERS AND INFLAMMATORY DISORDERS” (YISSUM RESEARCH DEVELOPMENT COMPANY OF THE HEBREW …, priority 2008, published 2011).
“Also recorded” adds a separate entry of the source. In the oligonucleotide strings, read from the 5' end, every base follows the letter of its sugar. An asterisk marks phosphorothioate; unmarked linkages are phosphodiester. Other units and linkages are bracketed, terminal groups are in braces. A string of capitals states the bases alone. d = 2'-deoxy (DNA)

Tests used:
FVB/N mice = assay: Predator (cat) odor stress paradigm, elevated plus maze (EPM) and acoustic startle response (ASR) one week post-exposure; format: in vivo, mouse
Procedure: Animals: FVB/N or adult TLR9 −/− mice and strain-matched wild type C57/B6J mice were housed four per cage, with constant temperature (21±1° C.), a 12 hour light/dark cycle, free access to food and water and habituation to the housing conditions by daily handling. Experiments were performed 1 week after arrival in the animal facility.
Behavioral paradigms: Mice were placed for 10 minutes on well-soiled cat litter (in use by the cat for 2 days, sifted for stools). One week after exposure, animals were tested according to Cohen et al. (2005) Biol Psychiatry 58, 640 in the elevated plus maze (EPM) and the acoustic startle response (ASR) paradigms. The EPM is a plus-shaped platform with two opposing open arms and two opposing closed arms (surrounded by 14-cm high opaque walls on three sides). Mice were placed on the central platform and were allowed to explore the maze for 5 min. […]
Startle response was measured using two ventilated startle chambers (SR-LAB System, San Diego Instruments, San Diego, Calif.). Each Plexiglas cylinder rests on a platform inside a sound-attenuated, ventilated chamber. Startle sessions started with a 5-minute acclimatization period to a background of 68 dB white noise, followed by 30 acoustic startle stimuli (110 dB white noise of 40 ms duration with 30 s or 45 s inter-trial interval). Startle amplitude was averaged over all 30 trials, and percent habituation was calculated as the percent difference between the response to the first block of stimuli and to the last one.
(§1) Animals were randomly divided into 5 groups. The following daily treatments initiated immediately before stressor exposure and for a total of four consecutive days: saline, 50 μg/kg ODN1826, 50 μg/kg mEN101, 50 μg/kg μg mEN101 and 500 μg/kg μg ODN2088. Oligonucleotides were delivered in 300 μl 0.9% NaCl solution (Teva, Israel). A control group was exposed to fresh, unused litter. Animals were sacrificed and brains dissected on day 1 2 h after the stressor, on day 4 2 h after the last injection, or on day 7 2 h after the behavioral tests, as noted.
To challenge the hypothesis that TLR9 activation modulates psychological stress reactions, mice were exposed to the predator odor stress paradigm (Cohen, H., Zohar, J., Matar, M. A., Kaplan, Z. & Geva, A. B. (2005) Biol Psychiatry 58, 640-50) and treated them with TLR9 activating or blocking oligonucleotides and with a known stress-suppressing oligonucleotide, mEN101. One week post-exposure, treated mice were tested for avoidance behavior and hyper-arousal in the elevated plus maze (EPM) and acoustic startle response (ASR) tests, respectively (FIG. 1B). […] They also presented greater startle amplitude (F5,103=10.75, p<0.0001; p<0.0001) and decreased startle habituation ([…]; p<0.0001) than control mice (FIG. 1C). The traumatic experience conferred varied impacts in the exposed mice, ranging from drastically maladaptive behavior to generally unmodified response patterns.

RAW264.7 cells [1] = assay: Nitric oxide (NO) production, Griess reaction; format: cell-based, mouse; conditions: added with 10 μM mEN101
Procedure: (§2) The mouse macrophage cell line RAW 264.7 (ATCC, Bethesda, Md.) was cultured in Dulbecco's modified Eagle's medium (DMEM) (Biological Industries) supplemented with 10% heat-inactivated fetal bovine serum (Biological Industries, Israel), 100 μg/ml streptomycin, 100 U/ml penicillin (Sigma) and 2 mM 1-glutamine (Biological Industries) at 37° C. in a humidified atmosphere with 5% CO2.
Determination of nitric oxide (NO) production: Nitrite concentration in the medium of cultured cells was measured as an indicator of NO production according to the Griess reaction. 1×10^5 mouse RAW264.7 cells were grown in 0.5 ml medium in 48-wells plate until 80% confluence was obtained. […] (1% sulfanilamide, 0.1% naphthylethylenediamine dihydrochloride, 5% H3PO4). Absorbance was read at 540 nm after 10 min using SPECTRAFluor Plus spectrophotometer (TECAN, UK).
To further characterize the TLR9 activating features of mEN101, mEN101 was applied to RAW264.7 cells (n=4 repeats) for 24 hours and the subsequent production of inflammatory markers was quantified. […] Addition of chloroquine (CQ), a weak base that perturbs endosomal pH and thus disturbs endosomal maturation, as well as the specific TLR9 inhibiting oligonucleotides ODN2088 and ODN TTAGGG (17), all blocked the 10 μM mEN101-driven increases in NO (p<0.015) (FIG. 2A). Thus, both gain and loss of function tests validated the nature of mEN101 as an endosomally active TLR9 activator, albeit a weak one.

hippocampus = assay: RT-PCR of anxiety-related hippocampal transcripts, 4 days following stress; format: in vivo, mouse
Procedure: as §1
Real-time PCR (RT-PCR): Brains were dissected and tissues stored frozen at −70° C. until use. Hippocampal RNA was extracted using the RNeasy Tissue Mini Kit (Qiagen, Germany). Total RNA was reverse-transcribed (200 ng) using Impromp-II reverse transcriptase (Promega, Madison, Wis.) as instructed. RT-PCR was performed using Power SYBR®Green PCR Master Mix (Applied Biosystems, UK) in a 7900 HT Sequence Detection System (Applied Biosystems, Foster City, Calif.). Quantification was assessed at the logarithmic phase of the PCR reaction. The PCR annealing temperature was 60° C. for all primer pairs. GAPDH was used as a house-keeping gene.
The transcription factor early growth response gene 1 (egr-1) is a central mediator of inflammation and is broadly and constitutively expressed in the central nervous system (CNS). […]

RAW264.7 cells [2] = assay: HSP90β mRNA RT-PCR in RAW264.7 cells; format: cell-based, mouse; conditions: with mEN101, 24 hours
Procedure: as §2, with “Cell cultures: The” for “The”, “MD)” for “Bethesda, Md.)”, “Industries, Israel)” for “Industries)”, “streptomycin (Sigma),” for “streptomycin,”
(§3) Real-time PCR (RT-PCR): RAW264.7 cells and spleen were used for RT-PCR. 1×10^6 RAW264.7 cells were grown in 2 ml medium in 6 wells plates until 80% confluence was obtained. Total RNA was extracted using the RNeasy kit (Qiagen, CA, USA). Spleen and brain tissues' RNA was extracted using the RNeasy Tissue Mini Kit (Qiagen, Germany). In all cases, total RNA was reverse-transcribed (200 ng) using Impromp-II reverse transcriptase (Promega, WI, USA) according to manufacturer's instructions. RT-PCR was performed using Power SYBR®Green PCR Master Mix (Applied Biosystems, UK) in a 7900 HT Sequence Detection System (Applied Biosystems, CA). Quantification was assessed at the logarithmic phase of the PCR reaction. The PCR annealing temperature was 60° C. for all primer pairs.

HSP90β mRNA = HSP90β mRNA RT-PCR in spleen and frontal lobe of stressed mice; format: in vivo, mouse; conditions: co-administration with mEN101
Procedure: Animals: The stress paradigm consisted of placing the test animals on well-soiled cat litter for 10 minutes (in use by the cat for 2 days, sifted for stools). Tissues were removed 4 days following exposure.
as §3

RAW264.7 cells [3] = assay: Nitric oxide (NO) production, Griess reaction; format: cell-based, mouse; conditions: with 1 μM mEN101
[4] = 500 μg/kg co-administered with 50 μg/kg mEN101

With “5′-TCCTGGCGGGGAAGT-3′ (dT*dC*dC*dT*dG*dG*dC*dG*dG*dG*dG*dA*dA*dG*dT) [ODN2088]” the “EPM score of co-treated mice vs mEN101-treated mice” value (FVB/N mice; [4]) was “larger EPM scores”, the “effect on mEN101 anxiolytic effects” value (FVB/N mice; [4]) was “abolished much of the mEN101 anxiolytic effects; also recorded: abolished the mEN101-induced amelioration of anxiety-correlated behaviors” and the “habituation to acoustic startle of co-treated mice vs mEN101-treated mice” value (FVB/N mice; [4]) was “smaller habituation to acoustic startle”. For the same substance, the “startle response of co-treated mice” value (FVB/N mice; [4]) was “remained unchanged”, the “anxiety index (AI): effect on mEN101 ameliorative effect” value (FVB/N mice; co-administered with mEN101, compared to mEN101 treated mice) was “abolished mEN101 ameliorative effect” and the “effect on 10 μM mEN101-driven increases in NO” value (RAW264.7 cells [1]) was “blocked”. The “effect on mEN101-induced modulation of hippocampal genes” value (hippocampus; co-administration with mEN101) was “abolished the mEN101-induced modulation of these genes”, the “anxiety-related transcripts GABRA2, CHRNA7, ADCYAP1R1, PKCB, CHRBP and CAMK2A (FIGS. 5A-F legend)” value (hippocampus; co-administration with mEN101, day 4) was “reduced to control levels” and the “effect on mEN101 up-regulation of HSP90β mRNA” value (RAW264.7 cells [2]) was “abolished”. For the same substance, the “effect on HSP90β mRNA up-regulation” value (HSP90β mRNA) was “completely abolished; also recorded: blocked” and the “effect on mEN101 effects on NO production (FIG. 2A legend)” value (RAW264.7 cells [3]) was “abolished”.
